Series [1] is described as follows: MTT cytotoxicity assay, MCF-10a (nontumorigenic). To be noted: MCF-10a nontumorigenic mammary cells, MCF-10a nontumorigenic human mammary cell line, mean ± SD, read-out: Cytotoxic activity IC50, MCF-10a. It is filed as cell-based. An excerpt: [The source words this procedure for another cell line and reports this cell line under the same test.] (§1) The human neuroblastoma cells (SH-SY5Y), triple-negative breast cancer cells (MDA-MB-231), and human pancreatic cancer cells (Panc1) used in this study were purchased from the American Type Culture Collection (ATCC). The cells were suspended in complete Dulbecco’s modified Eagle medium (DMEM) (Life Technologies, Gibco BRL, Grand Island, NY) supplemented with 10% fetal bovine serum (FBS, Hyclone), 1% penicillin and streptomycin (100 U/mL, Invitrogen) and plated in cell culture dishes. The cultures were maintained at 37 °C in a 5% CO2 95% humidified atmosphere. After reaching 85% confluence, the cells were transferred to 96-well plates or culture dishes. For MTT assays, the cells were seeded into 96-well cell culture plates at a density of 2 × 10^3 cells per well and allowed to adhere for 24 h. The cells were treated with fresh medium containing experimental compounds (100, 10, 1 µM) and incubated in a 5% CO2 incubator for 48 and 72 h. For protein analysis, the cells were seeded into 6-well cell culture plates at a density of 0.5 x 10^6 cells/well and allowed to adhere to the surface for 24 h. The stock solutions of the test compounds (5 mM) were prepared in sterile DMSO, and these stocks were then appropriately diluted with the complete culture medium. DMSO levels were maintained below 1% in the test concentrations.
(§2) Briefly, following exposures, MTT (at a final concentration of 0.5 mg/mL) was added to each well, and plates were incubated for 2 h at 37 °C in a 5% CO2 humidified incubator. The reaction mixture was removed, and DMSO was added to each well. The plates were shaken at room temperature, and the absorbance was measured at 570 nm and 630 nm using a microplate reader (VersaMax, Molecular Devices, USA). Percent survival was plotted relative to vehicle control cells, which were normalized to 100% survival.

The subject of series [2] is BAX, Bcl-2, Bcl-xL, caspase-3 and caspase-9 expression in PANC-1 cell line. Nature of the series: Western blot of apoptotic proteins, PANC-1. It is filed as cell-based, human. To be noted: at IC50, 24 and 48 h, vs control. The procedure: (§3) The cells (0.5 × 10^6 cell/well) were seeded into 6 well plates and incubated for 24 h, and then treated with selected experimental compounds for 24 h and 48 h. Following incubation, the cells were washed with ice-cold 1X PBS and lysed in 1X cell lysis buffer. These lysates were quantified using the BCA protein assay. Then, the cell lysates were analyzed by western blot.
(§4) On a 12% (w/v) tris-glycine denaturing gel, 20 μg protein was separated by electrophoresis, and then transferred to a PVDF membrane. After blocking, the membrane was incubated with primary antibodies, anti-Bax rabbit monoclonal antibody, anti-Bcl-2 rabbit monoclonal antibody, anti-Bcl-xL rabbit monoclonal antibody, anti-caspase-3 rabbit monoclonal antibody, and anti-caspase-9 rabbit monoclonal antibody (1:1000, Cell Signaling Technology) at 4 °C overnight. Following the incubation, the membrane was incubated with an anti-β-actin mouse monoclonal antibody (1:1000, Cell Signaling Technology) at room temperature for 1 h. After washing, the membrane was incubated with peroxidase-conjugated secondary antibodies for 1 h to visualize labeled proteins by enhanced chemiluminescence.
In general terms: A western blot detects proteins with antibodies after separation by electrophoresis.

In another series the test system is PANC-1 cells. The series can be described thus: Annexin V-FITC/PI flow cytometry, PANC-1. It is filed as cell-based, human. Particulars: at cytotoxic concentrations, 48 h. On the procedure:
(§5) The cells were harvested after 48 h, washed with PBS, and analyzed using the Annexin V FITC/PI Apoptosis Detection kit (BioVision, Mountain View, CA, USA) with a benchtop flow cytometer (Accuri C6 flow cytometry, Becton Dickinson).
A general note: In flow cytometry, cells or beads pass a laser one at a time.

In series [3] the test system is BAX, Bcl-2, Bcl-xL, caspase-3 and caspase-9 expression in MDA-MB-231 cell line. Nature of the series: Western blot of apoptotic proteins, MDA-MB-231. It is filed as cell-based, human. Particulars: for BAX protein levels: after only 24 h; for decrease of Bcl-2 expression: after 24 and 48 h, compared to control. The procedure:
as §3, §4

The next series relates to MDA-MB-231 cells. The series can be described thus: Annexin V-FITC/PI flow cytometry, MDA-MB-231. It is filed as cell-based, human. Particulars: 48 h, control 1.2%. The procedure: as §5
Series [4] has as its system PANC-1 human pancreatic cancer cells. Nature of the series: MTT cytotoxicity assay, PANC-1. The format is cell-based. To be noted: Homo sapiens, PANC-1, MTT, mean ± SD, read-out: Cytotoxic activity IC50, PANC-1.
Text: as §1, §2
Background: Formazan colour is commonly taken as a measure of viable cells.

Series [5] has as its system MDA-MB-231 triple-negative breast cancer cells. Nature of the series: MTT cytotoxicity assay, MDA-MB-231. The format is cell-based, human. To be noted: mean ± SD, read-out: Cytotoxic activity IC50, MDA-MB-231.
Text: as §1, §2

In series [6] the test system is SH-SY5Y human neuroblastoma cells. Nature of the series: MTT cytotoxicity assay, SH-SY5Y. The format is cell-based. To be noted: Homo sapiens, SH-SY5Y, mean ± SD, read-out: Cytotoxic activity IC50, SH-SY5Y.
Text: as §1, §2

For another series, the system named is SH-SY5Y cells. Nature of the series: Annexin V-FITC/PI flow cytometry, SH-SY5Y. It is filed as cell-based, human. Particulars: 48 h, control 3.2%. On the procedure:
as §5

The structures appear in SMILES notation. “And” between values parts separate entries of the source, which are not always exact repeats. Equal entries are not always repeated. “Also recorded” adds a separate entry of the source. Where two headings read alike, the source gives them in different places.

The IC50 is the concentration at which inhibition is half-maximal. The melting point is the temperature of the solid-liquid transition. In turn, `COc1ccc(NS(=O)(=O)CCNC(=O)c2ccc(OC)cc2)cc1` [Compound 15, 4-Methoxy-N-(2-(N-(4-methoxyphenyl)sulfamoyl)ethyl)benzamide] displayed a melting point of 112 to 113 °C. The IC50 in series [1] is 118 ± 1.4 µM. Besides, in series [2], the Bcl-xL expression result was “opposite effect”, the caspase-3 expression result is “opposite effect” and the caspase-9 expression entry is “opposite effect”. Also, the “apoptotic cell ratios (Annexin V-FITC/PI result)” value in the series on PANC-1 cells is listed as “no significant changes; also recorded: negative”. Further, in series [3] (Western blot), the “caspase-3 expression (in words)” value is listed as “increased”, the “caspase-9 expression levels (in words)” value is “did not exert any effect” and the BAX protein levels result was “significantly increased”. For the same molecule, in series [3], the “decrease of Bcl-2 expression” value was 2- to 3 fold. Besides, in the series on MDA-MB-231 cells, the “percent of the positive apoptotic cells” value was 1.4%. The IC50 in [4] came to 18.1 ± 1.6 µM. For the same molecule, the IC50 in [5] (Homo sapiens, MDA-MB-231, MTT) turned out to be 33.9 ± 1.8 µM. The 50% inhibitory concentration (IC50) in [6] worked out at 39.9 ± 1.6 µM. For the same molecule, in the series with SH-SY5Y cells, the apoptotic cell ratios came to 3.9%.
For `COc1ccc(C(=O)NCCS(=O)(=O)N2CCOCC2)cc1` [Compound 7, 4-Methoxy-N-(2-(morpholinosulfonyl)ethyl)benzamide], the melting point was in the range of 183.5 to 184.5 °C. Also, the IC50 in series [1] was 118 ± 1.2 µM. Also, in [2], the BAX expression entry is recorded as “effectively upregulated”, the Bcl-2 expression entry is recorded as “did not show any effect”, the Bcl-xL expression entry was “slightly decreased” and the caspase-3 expression result is “effectively upregulated”. For the same molecule, the caspase-9 expression entry in series [2] is listed as “effectively upregulated”. Moreover, the “apoptotic cell ratios (Annexin V-FITC/PI result)” value in the series with PANC-1 cells is reported as “no significant changes; also recorded: negative”. Further, in series [3] (Western blot), the “caspase-3 expression (in words)” value was “lack of change” and the BAX protein levels result is given as “significantly increased”. For the same molecule, the “decrease of Bcl-2 expression” value in series [3] is given as 2- to 3 fold. The “percent of the positive apoptotic cells” value in the series on MDA-MB-231 cells was “no changes”. The IC50 in series [4] was found to be 1.2 ± 1.8 µM. Also, the IC50 in series [5] (Homo sapiens, MDA-MB-231, MTT) came out at 136 µM. Besides, the IC50 in series [5] (MTT) was 79 µM and 77 µM. Moreover, the IC50 in [6] was determined as 134 ± 1.7 µM. Besides, the apoptotic cell ratios result in the series on SH-SY5Y cells is given as “no positive results”.

The values above are taken from PMC7763113, “Design, synthesis, cytotoxic activity, and apoptosis inducing effects of 4- and N-substituted benzoyltaurinamide derivatives” (Turkish Journal of Chemistry, 2020).
